Measurements taken from patent US10934310B2, “Inhibitors of Bruton's tyrosine kinase and method of their use” (JANSSEN PHARMACEUTICA NV, priority 2015, dated 2021).

target: unphosphorylated-BTK kinase domain (UP-BTK), GST-tagged human BTK (389-659aa) (Homo sapiens (Human), UniProt Q06187); assay: BTK Kinase Lanthascreen Binding Assay; conditions: compound, 50 nM Tracer 236, 2 nM anti-GST antibody, 60 minutes; pIC50 = negative log of the IC50 in molar
Protocol: BTK Kinase Lanthascreen Binding Assay:
A BTK kinase lanthascreen binding assay monitors compound binding to unphosphorylated-BTK kinase domain (UP-BTK), by competing with a fluorescent labeled tracer. […] Data were analyzed using Xlfit™ version 5.3 from ID Business Solutions (Guildford), Microsoft Excel add-in. pIC50 refers to the negative log of the IC50 in molar.

Chain of unphosphorylated-BTK kinase domain (UP-BTK), GST-tagged human BTK (389-659aa) (Q06187 389-659): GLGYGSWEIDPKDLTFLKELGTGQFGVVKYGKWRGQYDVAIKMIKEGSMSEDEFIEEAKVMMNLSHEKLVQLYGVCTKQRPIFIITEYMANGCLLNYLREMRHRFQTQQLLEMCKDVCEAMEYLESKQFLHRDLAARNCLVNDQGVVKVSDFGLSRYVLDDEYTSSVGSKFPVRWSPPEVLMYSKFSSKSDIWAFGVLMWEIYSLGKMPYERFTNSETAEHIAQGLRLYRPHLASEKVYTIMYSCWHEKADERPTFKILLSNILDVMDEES

| Compound | BTK_I_binding pIC50 |
| --- | --- |
| C=CC(=O)N[C@@H]1CC[C@@H](NC(=O)c2sc3nccc4c3c2NC(=O)N4c2ccnc(-c3ccccc3)c2)C1 [Example 212, N-((1R,3R)-3-Acrylamidocyclopentyl)-4-oxo-5-(2-phenylpyridin-4-yl)-4,5-dihydro-3H-1-thia-3,5,8-triazaacenaphthylene-2-carboxamide] | 7.49 |
| Cc1cc(Oc2ccccc2)ccc1N1C(=O)Nc2c(C(=O)N[C@@H]3CC[C@@H](NC(=O)CN(C)C)C3)sc3nccc1c23 [Example 217, N-((1R,3R)-3-(2-(Dimethylamino)acetamido)cyclopentyl)-5-(2-methyl-4-phenoxyphenyl)-4-oxo-4,5-dihydro-3H-1-thia-3,5,8-triazaacenaphthylene-2-carboxamide] | 7.44 |
| C=CC(=O)N[C@@H]1CCCC[C@H]1NC(=O)c1sc2nccc3c2c1NC(=O)N3c1ccc(Oc2ccccc2)cn1 [Example 218, N-((1R,2R)-2-Acrylamidocyclohexyl)-4-oxo-5-(5-phenoxypyridin-2-yl)-4,5-dihydro-3H-1-thia-3,5,8-triazaacenaphthylene-2-carboxamide] | 6.76 |
| C=CC(=O)N[C@H]1CCC[C@H]1NC(=O)c1sc2nccc3c2c1NC(=O)N3c1ccc(Oc2ccccn2)cc1C [Example 220, N-((1R,2S)-2-acrylamidocyclopentyl)-5-(2-methyl-4-(pyridin-2-yloxy)phenyl)-4-oxo-4,5-dihydro-3H-1-thia-3,5,8-triazaacenaphthylene-2-carboxamide] | 8.16 |
| C=CC(=O)N[C@H]1CCCC[C@H]1NC(=O)c1sc2nccc3c2c1NC(=O)N3c1cnc(OC2CCCC2)cc1C [Example 223, N-((1R,2S)-2-Acrylamidocyclohexyl)-5-(6-(cyclopentyloxy)-4-methylpyridin-3-yl)-4-oxo-4,5-dihydro-3H-1-thia-3,5,8-triazaacenaphthylene-2-carboxamide] | 7.81 |
| C=CC(=O)N[C@H]1CCC[C@H]1NC(=O)c1sc2nccc3c2c1NC(=O)N3c1ccc(Oc2ncccn2)cc1C [Example 224, N-((1R,2S)-2-acrylamidocyclopentyl)-5-(2-methyl-4-(pyrimidin-2-yloxy)phenyl)-4-oxo-4,5-dihydro-3H-1-thia-3,5,8-triazaacenaphthylene-2-carboxamide] | 7.46 |
| C=CC(=O)N[C@H]1CCCC[C@H]1NC(=O)c1sc2nccc3c2c1NC(=O)N3c1cnc(OCC(C)C)cc1C [Example 225, N-((1R,2S)-2-Acrylamidocyclohexyl)-5-(6-isobutoxy-4-methylpyridin-3-yl)-4-oxo-4,5-dihydro-3H-1-thia-3,5,8-triazaacenaphthylene-2-carboxamide] | 7.66 |
| C=CC(=O)N[C@@H]1CCCC[C@H]1NC(=O)c1sc2nccc3c2c1NC(=O)N3c1ccnc(-c2ccccc2)c1 [Example 227, N-((1R,2R)-2-Acrylamidocyclohexyl)-4-oxo-5-(2-phenylpyridin-4-yl)-4,5-dihydro-3H-1-thia-3,5,8-triazaacenaphthylene-2-carboxamide] | 6.76 |
| CC(=O)N[C@@H]1CC[C@@H](NC(=O)c2sc3nccc4c3c2NC(=O)N4c2ccc(Oc3ccccc3)cc2C)C1 [Example 228, N-((1R,3R)-3-Acetamidocyclopentyl)-5-(2-methyl-4-phenoxyphenyl)-4-oxo-4,5-dihydro-3H-1-thia-3,5,8-triazaacenaphthylene-2-carboxamide] | 7.34 |
| CNCC(=O)N[C@@H]1CC[C@@H](NC(=O)c2sc3nccc4c3c2NC(=O)N4c2ccc(Oc3ccccc3)cc2C)C1 [Example 229, 5-(2-Methyl-4-phenoxyphenyl)-N-((1R,3R)-3-(2-(methylamino)acetamido)cyclopentyl)-4-oxo-4,5-dihydro-3H-1-thia-3,5,8-triazaacenaphthylene-2-carboxamide] | 7.29 |
